Experimental data reported in patent US6548553B2, “Styryl sulfone anticancer agents” (Temple University-of the Commonwealth System of Higher …, priority 1997, dated 2003).

Tests used:
Assay type in all cases: cell-based
LnCaP and MCF-7 cells = assay: Trypan blue exclusion viability assay, Tables 2-4; details: 5.0 μM compound, 48 hours, read-out: % viable LnCaP and MCF-7 cells
Experimental: (§1) The effect of the styryl sulfones on the growth of normal and tumor cells of breast and prostate was examine utilizing four cell lines, NIH3T3, MCF-7, BT-20 and LnCap. NIH/3T3 cells represent normal fibroblasts while LnCap is an androgen-dependent prostate tumor cell line. MCF-7 is an estrogen-responsive breast tumor cell line, while BT-20 is an estrogen-unresponsive breast tumor cell line. MCF-7 and BT-20 were grown in Dulbecco's modified Eagle's medium (DMEM) containing 10% fetal bovine serum supplemented with penicillin and streptomycin. LnCaP were cultured in RPMI with 10% fetal bovine serum containing penicillin and streptomycin. NIH3T3 cells were grown in DMEM containing 10% calf serum supplemented with penicillin and streptomycin. All cell cultures were maintained at 37° C. in a humidified atmosphere of 5% CO2.
Cells were treated with test compound at 2.5 μM or 5.0 μM concentration and cell viability was determined after 48 hours by the Trypan blue exclusion method. The compounds identified in Tables 2, 3 and 4 inhibited cell growth and induced cell death, to varying degrees. The tables list the percent viable LnCap and MCF-7 cells treated with 5.0 μM compound.

[1] = test system: LnCaP, BT-20 and MCF-7 cells; assay: Trypan blue exclusion viability/proliferation assay (dose and time course)
Experimental: as §1
The compounds identified in Tables 2, 3 and 4 inhibited cell growth and induced cell death, to varying degrees. The tables list the percent viable LnCap and MCF-7 cells treated with 5.0 μM compound.
NIH3T3, MCF-7, BT-20 and LnCaP cells were treated with FRI-20 dissolved in DMSO to concentrations of 250 nM, 500 nM, 1 μM, 2.5 μM and 5 μM and examined for their proliferation and viability after 48 hours (FIG. 2A). The percentage of living cells was determined by Trypan blue exclusion. The control cells were treated with DMSO to determine the effect of solvent on cells. […] Under these conditions, only 2-3% of NIH3T3 cells were non-viable at both the concentrations. […] After 48 hours incubation, 60-75% of the LnCaP, BT-20 and MCF-7 cells were dead at […] FRI-20 concentration, whereas more than 90% of NIH3T3 cells were viable (FIG. 2A).
NIH/3T3, MCF-7, BT-20 and LnCap were treated with FRI-20 at 2.5 μM and the number of viable cells was determined at 12, 24, 48 and 72 hours by Trypan blue exclusion.

A431 = assay: GI50 growth inhibition, trypan blue cell count; details: Homo sapiens, A-431; epidermoid; 96 hours after addition
Experimental: (§2) The human carcinoma cell lines listed in Table 5 below were purchased from ATCC and grown in an appropriate growth medium containing 10% fetal bovine serum (FBS) and antibiotics. The cells were plated at a cell density of 1.0×10^5 cells per […] in 6-well dishes. The cells were treated with various concentrations of (E)-fluorostyryl-4-bromobenzylsulfone 24 hours after plating in a total volume of 1 ml of medium using dimethylsulfoxide (DMSO) as a solvent for the compound. Control cells were treated with DMSO alone. The total number of viable cells was determined 96 hours after the addition of the compound by counting the cells in each well using a hemacytometer after trypan blue staining (viable cells exclude the stain). The counts were done in duplicate and the average was graphed in FIG. 8 as a percentage of the non-treated control group.
(§3) Applying the same protocol as in Example 34, the GI50 for compound FRI-20 treatment of the cell lines in Table 6 was determined: […]

BxPC-3 = assay: GI50 growth inhibition, trypan blue cell count; details: Homo sapiens, pancreatic, 96 hours after addition
Experimental: as §2, §3

CAKI-1 = assay: GI50 growth inhibition, trypan blue cell count; details: Homo sapiens, renal, 96 hours after addition
Experimental: as §2, §3

CAKI-2 = assay: GI50 growth inhibition, trypan blue cell count; details: Homo sapiens, renal, 96 hours after addition
Experimental: as §2, §3

CEM = assay: GI50 growth inhibition, trypan blue cell count; details: Homo sapiens, CCRF-CEM; acute lymphocytic lymphoma; 96 hours after addition
Experimental: as §2, §3

Daudi = assay: GI50 growth inhibition, trypan blue cell count; details: Homo sapiens, Burkets lymphoma, 96 hours after addition
Experimental: as §2, §3

Detroit 525 = assay: GI50 growth inhibition, trypan blue cell count; details: Homo sapiens; Turner Syndrome skin fibroblast; 96 hours after addition
Experimental: as §2, §3

H1299 = assay: GI50 growth inhibition, trypan blue cell count; details: Homo sapiens, NCI-H1299; lung, non-small cell; 96 hours after addition
Experimental: as §2, §3

H209 = assay: GI50 growth inhibition, trypan blue cell count; details: Homo sapiens, NCI-H209; lung, small cell; 96 hours after addition
Experimental: as §2, §3

HCT116 = assay: GI50 growth inhibition, trypan blue cell count; details: Homo sapiens, HCT-116; cob-rectal; 96 hours after addition
Experimental: as §2, §3

Hs 416.T = assay: GI50 growth inhibition, trypan blue cell count; details: Homo sapiens; squamous papilloma; 96 hours after addition
Experimental: as §2, §3

Hs 456.BT = assay: GI50 growth inhibition, trypan blue cell count; details: Homo sapiens; benign skin lesion; 96 hours after addition
Experimental: as §2, §3

Hs-802.T = assay: GI50 growth inhibition, trypan blue cell count; details: Homo sapiens; squamous cell carcinoma; 96 hours after addition
Experimental: as §2, §3

MES-SA = assay: GI50 growth inhibition, trypan blue cell count; details: Homo sapiens, uterine sarcoma, 96 hours after addition
Experimental: as §2, §3

N417 = assay: GI50 growth inhibition, trypan blue cell count; details: Homo sapiens, lung, small cell, 96 hours after addition
Experimental: as §2, §3

Raji = assay: GI50 growth inhibition, trypan blue cell count; details: Homo sapiens, Burkets lymphoma, 96 hours after addition
Experimental: as §2, §3

SK-MEL-3 = assay: GI50 growth inhibition, trypan blue cell count; details: Homo sapiens, SK-MEL3; melanoma; 96 hours after addition
Experimental: as §2, §3

SK-ov-3 = assay: GI50 growth inhibition, trypan blue cell count; details: Homo sapiens, ovarian, 96 hours after addition
Experimental: as §2, §3

SW1088 = assay: GI50 growth inhibition, trypan blue cell count; details: Homo sapiens, astrocytoma, 96 hours after addition
Experimental: as §2, §3

TE 354 = assay: GI50 growth inhibition, trypan blue cell count; details: Homo sapiens; basal cell carcinoma; 96 hours after addition
Experimental: as §2, §3

[2] = test system: LnCaP, BT-20 and MCF-7 cells; assay: Trypan blue exclusion viability/proliferation assay (dose and time course); details: 2.5 mM (FIG. 1A) and 5.0 mM (FIG. 1B), 48 hours of treatment

What does the source list for O=S(=O)(/C=C/c1ccc(F)cc1)Cc1ccc(Cl)cc1 [Example 11, E-4-fluorostyryl 4-chlorobenzyl Sulfone]?
viability at 5 µM (LnCaP and MCF-7 cells): 6%; cell death ([1]; 250 nM, 48 hours): about 10%; inhibition at 0.25 µM ([1]; 250 nM, 48 hours, read-out: inhibition in cell division compared to untreated cells): 15 to 20%; cell death ([1]; 500 nM, 48 hours): 25-30%; inhibition at 0.5 µM ([1]; 500 nM, 48 hours, read-out: inhibition in cell proliferation): 30 to 50%; cell growth inhibition with loss of cell viability ([1]; 1 μM, 48 hours): greatly inhibited; dead cells ([1]; 2.5 µM, 48 hours incubation): 60-75%; dead cells ([1]; 2.5 μM, 72 hours of treatment): more than 95%; cell death ([1]; 5 μM, 48 hours): ~90%; GI50 (A431): 800 nM; GI50 (BxPC-3): 500 nM; GI50 (CAKI-1): 1500 nM; GI50 (CAKI-2): 1000 nM; GI50 (CEM): 1000 nM; GI50 (Daudi): 2000 nM; GI50 (Detroit 525): 3000 nM; GI50 (H1299): 2000 nM; GI50 (H209): 1000 nM; GI50 (HCT116): 1000 nM; GI50 (Hs 416.T): 4000 nM; GI50 (Hs 456.BT): 3000 nM; GI50 (Hs-802.T): 4000 nM; GI50 (MES-SA): 1000 nM; GI50 (N417): 1000 nM; GI50 (Raji): 2000 nM; GI50 (SK-MEL-3): 2000 nM; GI50 (SK-ov-3): 1500 nM; GI50 (SW1088): 2000 nM; GI50 (TE 354): 4000 nM; inhibition of growth and induction of death of LnCaP, BT-20 and MCF-7 cells [2]: substantially inhibit the growth and induce the death
